Values of other authors, collected in US20050208119A1, “Encapsulated oral chelating preparations” (priority 2004, published 2005).

Settings: oral administration

fraction absorbed when administered by mouth (general consensus): about five | unabsorbed fraction that remains within the digestive tract (reported): 95%
SMILES: O=C(O)CN(CCN(CC(=O)O)CC(=O)O)CC(=O)O [EDTA, ethylene-diaminetetraacetic acid]
